Columns and labels:
BA/F3-FLT3-ITD + D835Y = molecular target: T1, BA/F3-FLT3-ITD + D835Y (Homo sapiens, UniProt P36888, D835Y, cells depend on it, form not given); experiment: Engineered BA/F3 cell growth assay, FLT3 ITD/D835Y; assay type: cell-based, murine; conditions: 3 d growth
T1 sequence (P36888 with tags, fused parts or gaps INS600HVDFREYEYD/D835Y): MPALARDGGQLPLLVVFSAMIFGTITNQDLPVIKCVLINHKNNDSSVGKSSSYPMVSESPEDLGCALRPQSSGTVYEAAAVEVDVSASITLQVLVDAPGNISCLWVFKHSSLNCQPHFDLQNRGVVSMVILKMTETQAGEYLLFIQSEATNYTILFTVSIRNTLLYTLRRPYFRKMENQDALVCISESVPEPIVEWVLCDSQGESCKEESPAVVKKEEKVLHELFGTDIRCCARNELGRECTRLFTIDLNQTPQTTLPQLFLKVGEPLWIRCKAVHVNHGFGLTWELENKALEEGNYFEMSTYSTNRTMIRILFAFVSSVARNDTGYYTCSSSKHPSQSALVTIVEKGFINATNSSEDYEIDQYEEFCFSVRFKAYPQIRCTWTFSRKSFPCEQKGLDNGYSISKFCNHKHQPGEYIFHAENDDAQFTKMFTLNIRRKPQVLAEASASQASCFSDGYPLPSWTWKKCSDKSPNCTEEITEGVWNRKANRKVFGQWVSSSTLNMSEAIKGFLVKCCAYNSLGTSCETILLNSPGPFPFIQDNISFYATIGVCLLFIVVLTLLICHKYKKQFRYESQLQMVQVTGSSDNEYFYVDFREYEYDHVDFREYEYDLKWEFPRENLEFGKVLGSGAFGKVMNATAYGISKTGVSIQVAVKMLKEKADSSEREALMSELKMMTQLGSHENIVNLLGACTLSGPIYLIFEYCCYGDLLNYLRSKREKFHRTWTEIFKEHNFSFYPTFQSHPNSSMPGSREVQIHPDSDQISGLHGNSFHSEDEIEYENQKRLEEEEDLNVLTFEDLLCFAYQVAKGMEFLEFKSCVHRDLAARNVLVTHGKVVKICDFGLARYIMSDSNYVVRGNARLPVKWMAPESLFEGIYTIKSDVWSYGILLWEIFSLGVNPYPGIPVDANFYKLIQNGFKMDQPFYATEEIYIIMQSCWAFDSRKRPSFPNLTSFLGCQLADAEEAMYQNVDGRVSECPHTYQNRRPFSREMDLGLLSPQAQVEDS
Source text: (§1) The FLT3 inhibitors may be assessed using the MOLM-14, Acute Myeloid Leukemia cell line that endogenously expresses FLT3 ITD or derivatives of the human FLT3 AML cell line which acquired the D835Y (activation loop) of F691L (gatekeeper) mutation after selection in escalating doses of the FLT3 Inhibitor AC220. FLT3 inhibitors may also be assessed using cells that are engineered to express mutant FLT3. For engineered cells, murine Ba/F3 cells were transfected with full-length FLT3 ITD/D835Y mutations. The parental BA/F3 cells are dependent upon Interleukin-3 (IL-3) for survival, and introduction of the FLT3 constructs rendered these cells dependent upon FLT3 kinase activity when cultured in the absences of IL-3. Engineered BA/F3 cell growth assays can be performed in either the […] of IL-3, to assess the compound inhibition of FLT3 or to detect the presence of off-target activity, respectively. Inhibitors of FLT3 kinase activity reduce or eliminate the FLT3 oncogenic signaling, resulting in reduced cell proliferation. This inhibition is measured as a function of compound concentration to assess IC50 values.
(§2) Cell lines used in proliferation assays are as follows in Table 2:
(§3) Cells were seeded at 1×10^4 cells per well of a 96 well cell culture plate in 50 μl of cell culture medium. Compounds were dissolved in DMSO, typically at a concentration of 0.5 mM and were serially diluted 1:3 for a total of eight points and added to the cells to final concentrations of […], 0.0041, 0.0014 and 0.00046 μM in 100 μl cell culture medium (final concentration 0.2% DMSO). […] The cells were incubated at 37° C., 5% CO2 for three days. CellTiter-Glo Buffer (Promega Cell Viability Assay catalog #G7573) and substrate were equilibrated to room temperature, and enzyme/substrate Recombinant Firefly Luciferase/Beetle Luciferin was reconstituted. The cell plates were equilibrated to room temperature for 30 minutes, then lysed by addition of an equivalent volume of the Celltiter-Glo Reagent. The plate was mixed for 10 minutes on a plate shaker to lyse the cells. The plates were read on a Tecan M1000 using Luminescence protocol modified to read 0.1 s per well. The luminescence reading assesses the ATP content, which correlates directly with cell number such that the reading as a function of compound concentration was used to determine the IC50 value.
The BaF3 assays as developed used to generate the data in Tables 7 and 8 are identical and differ only in minor details in regards to vector design, not biological function. Both introduce the FLT3 gene with MV4-11 based ITD duplications and resistance mutations from an exogenous promoter (MSCV and CMV respectively) in the exact same cell line.
As a result of the expressed FLT3 protein, the IL3 factor dependent BaF3 cell clones become IL3-factor independent.
The compounds in Tables 7 and 8 were tested in an identical fashion by incubating such clones in with increasing concentrations. Inhibition of the FLT3 activity by an inhibitor results in factor dependency, which in the absence of IL3 results in cell death in the three day growth assays.

[1] = tested on: MOLM-14 F691L (endogenous FLT3 ITD and transfected FLT3 F691L); experiment: MOLM-14 F691L cell proliferation assay (CellTiter-Glo); assay type: cell-based; conditions: Homo sapiens, MOLM-14, 72 h; 3 d growth, GMean
Source text: as §1, §2, §3

[2] = tested on: MOLM-14 D835Y (endogenous FLT3 ITD and transfected FLT3 D835Y); experiment: MOLM-14 D835Y cell proliferation assay (CellTiter-Glo); assay type: cell-based; conditions: Homo sapiens, MOLM-14, 72 h; 3 d growth, GMean
Source text: as §1, §2, §3

COc1ncc(NC(=O)Cc2ccc(-c3cnc4[nH]c(-c5ccc(N6CCOCC6)nc5)cc4c3)c(F)c2)cc1C(F)(F)F [Compound P-0193, 2-[3-fluoro-4-[2-(6-morpholino-3-pyridyl)-1H-pyrrolo[2,3-b]pyridin-5-yl]phenyl]-N-[6-methoxy-5-(trifluoromethyl)-3-pyridyl]acetamide]
0.0001 to 10 µM: GI50 (BA/F3-FLT3-ITD + D835Y) | IC50 [1] | IC50 [2]

COc1cc(-c2cc3cc(-c4ccc(CC(=O)Nc5ccnc(C(F)(F)F)c5)nc4)cnc3[nH]2)ccn1 [Compound P-0187, 2-[5-[2-(2-methoxy-4-pyridyl)-1H-pyrrolo[2,3-b]pyridin-5-yl]-2-pyridyl]-N-[2-(trifluoromethyl)-4-pyridyl]acetamide]
0.0001 to 10 µM: GI50 (BA/F3-FLT3-ITD + D835Y) | IC50 [1] | IC50 [2]

Cc1n[nH]c2ncc(NC(=O)Cc3ccc(-c4cnc(Nc5cnn(C)c5)nc4)cc3)cc12 [Compound P-0120, N-(3-methyl-1H-pyrazolo[3,4-b]pyridin-5-yl)-2-[4-[2-[(1-methylpyrazol-4-yl)amino]pyrimidin-5-yl]phenyl]acetamide]
0.0001 to 10 µM: GI50 (BA/F3-FLT3-ITD + D835Y) | IC50 [1] | IC50 [2]

Cn1cc(Nc2ncc(-c3ccc(CC(=O)Nc4cnc5[nH]ccc5c4)cc3)cn2)cn1 [Compound P-0119, 2-[4-[2-[(1-methylpyrazol-4-yl)amino]pyrimidin-5-yl]phenyl]-N-(1H-pyrrolo[2,3-b]pyridin-5-yl)acetamide]
0.0001 to 10 µM: GI50 (BA/F3-FLT3-ITD + D835Y) | IC50 [1] | IC50 [2]

COc1ncc(NC(=O)Cc2ccc(-c3cnc(Nc4cn(C(F)F)nc4C)nc3)cc2)cc1C(F)(F)F [Compound P-0054, 2-[4-[2-[[1-(difluoromethyl)-3-methyl-pyrazol-4-yl]amino]pyrimidin-5-yl]phenyl]-N-[6-methoxy-5-(trifluoromethyl)-3-pyridyl]acetamide]
0.0001 to 10 µM: GI50 (BA/F3-FLT3-ITD + D835Y) | IC50 [1] | IC50 [2]

O=C(Cc1ccc(-c2cnc(Nc3cnn(C(F)F)c3)nc2)cc1)Nc1cncc(C2CC2)c1 [Compound P-0224, N-(5-cyclopropyl-3-pyridyl)-2-[4-[2-[[1-(difluoromethyl)pyrazol-4-yl]amino]pyrimidin-5-yl]phenyl]acetamide]
0.0001 to 10 µM: GI50 (BA/F3-FLT3-ITD + D835Y) | IC50 [1] | IC50 [2]

Cn1cc(Nc2ncc(-c3ccc(CC(=O)Nc4cc(C(C)(F)F)ccn4)cc3)cn2)cn1 [Compound P-0147, N-[4-(1,1-difluoroethyl)-2-pyridyl]-2-[4-[2-[(1-methylpyrazol-4-yl)amino]pyrimidin-5-yl]phenyl]acetamide]
0.0001 to 10 µM: GI50 (BA/F3-FLT3-ITD + D835Y) | IC50 [1] | IC50 [2]

O=C(Cc1cc(F)c(-c2cnc3[nH]c(-c4ccnc(N5CCOCC5)c4)cc3c2)cc1F)Nc1cc(C(F)(F)F)ccn1 [Compound P-0190, 2-[2,5-difluoro-4-[2-(2-morpholino-4-pyridyl)-1H-pyrrolo[2,3-b]pyridin-5-yl]phenyl]-N-[4-(trifluoromethyl)-2-pyridyl]acetamide]
0.0001 to 10 µM: GI50 (BA/F3-FLT3-ITD + D835Y) | IC50 [1] | IC50 [2]

CCc1cncc(NC(=O)Cc2ccc(-c3cnc(Nc4cnn(C(F)F)c4)nc3)cc2)c1 [Compound P-0223, 2-[4-[2-[[1-(difluoromethyl)pyrazol-4-yl]amino]pyrimidin-5-yl]phenyl]-N-(5-ethyl-3-pyridyl)acetamide]
0.0001 to 10 µM: GI50 (BA/F3-FLT3-ITD + D835Y) | IC50 [1] | IC50 [2]

COc1ncc(NC(=O)Cc2ccc(-c3cnc4[nH]c(C#CC5CC5)cc4c3)cc2)cc1C(F)(F)F [Compound P-0008, 2-[4-[2-(2-cyclopropylethynyl)-1H-pyrrolo[2,3-b]pyridin-5-yl]phenyl]-N-[6-methoxy-5-(trifluoromethyl)-3-pyridyl]acetamide]
0.0001 to 10 µM: GI50 (BA/F3-FLT3-ITD + D835Y) | IC50 [1] | IC50 [2]

Cn1cc(Nc2ncc(-c3ccc(CC(=O)Nc4ccc(C#N)c(C(F)(F)F)c4)cc3)cn2)cn1 [Compound P-0113, N-[4-cyano-3-(trifluoromethyl)phenyl]-2-[4-[2-[(1-methylpyrazol-4-yl)amino]pyrimidin-5-yl]phenyl]acetamide]
0.0001 to 10 µM: GI50 (BA/F3-FLT3-ITD + D835Y) | IC50 [1] | IC50 [2]

COc1ncc(NC(=O)Cc2ccc(-c3cnc4[nH]c(-c5ccc(N6CCOCC6)nc5)cc4c3)cc2F)cc1C(F)(F)F [Compound P-0010, 2-[2-fluoro-4-[2-(6-morpholino-3-pyridyl)-1H-pyrrolo[2,3-b]pyridin-5-yl]phenyl]-N-[6-methoxy-5-(trifluoromethyl)-3-pyridyl]acetamide]
0.0001 to 10 µM: GI50 (BA/F3-FLT3-ITD + D835Y) | IC50 [1] | IC50 [2]

COCCn1cc(Nc2ncc(-c3ccc(CC(=O)Nc4cnc(C)c(C(F)(F)F)c4)c(F)c3)cn2)cn1 [Compound P-0264, 2-[2-fluoro-4-[2-[[1-(2-methoxyethyl)pyrazol-4-yl]amino]pyrimidin-5-yl]phenyl]-N-[6-methyl-5-(trifluoromethyl)-3-pyridyl]acetamide]
0.0001 to 10 µM: GI50 (BA/F3-FLT3-ITD + D835Y) | IC50 [1] | IC50 [2]

Source: patent US10160747B2, “Compounds and methods for kinase modulation, and indications therefor” (Plexxikon Inc., priority 2016, dated 2018)
